Laboratory results taken from patent US9175058B2, “Soluble immune response suppressor polypeptides and treatment of multiple sclerosis and other autoimmune diseases” (THE BOARD OF REGENTS OF THE UNIVERSITY OF TEXAS SYSTEM, priority 2004, dated 2015).
No end group written: not given here.

Columns and labels:
Format in all cases: in vivo, mouse
C57/BL6 mice = assay: Induction of acute EAE by active immunization with MOG peptide 35-55; set-up: dose or concentration left out as unconfirmed; conditions: day 21, s.c. immunization with peptide in IFA, pertussis toxin, FIG. 1
SOCS-3 [1] = assay: Quantitative PCR of SOCS-3 transcripts in spleen and spinal cord of SIRS peptide-fed EAE mice; conditions: for Splenic SOCS-3 transcript level normalized to b-actin: spleen, day 23-26 post active immunization
SOCS-3 [2] = assay: as above; conditions: for SOCS-3 transcript level in CNS target tissue normalized to b-actin: spinal cord, day 23-26 post active immunization
From the text: (§1) Quantitative PCR can be performed for nominal EAE cytokine or transcript of interest. In particular, the mean measured transcript levels for IL-2/IFN-γ (Th1-like), IL-4/IL-10 (Th2-like) and other nominal biologic response modifiers of interest (e.g. TGF-β, IL-1, IL-6, IL-12, TNF-α) will be normalized to the b-actin control and expressed as % b-actin molecules.
(§2) Inflamed spinal cords from soluble immune response suppressor peptide-fed B6 mice (active treatment group) or from mock fed donor mice (control) were utilized for the experiments below. Intact spinal cord can be ejected by injecting saline into the distal end of the spinal canal and stored in RNALater (Ambion). The spinal cord is disrupted and the resulting cell suspension is filtered through a Falcon Cell Strainer 2350 (Becton Dickinson, San Jose, Calif.). Total RNA was processed on day 23-26 post active immunization, and relative numbers of transcripts for IFN-γ, IL-4, IL-10, SOCS-1, SOCS-2, and SOCS-3 were determined by quantitative PCR. The measured mean transcript levels were normalized to b-actin control (normalization mean=COI mean/b-actin×100) and expressed as % b-actin molecules.

SOCS-2 = assay: Quantitative PCR of SOCS-2 transcripts in spleen and spinal cord of SIRS peptide-fed EAE mice
From the text: as §1, §2

IL-4 = assay: Quantitative PCR of IL-4 transcripts in spleen and spinal cord of SIRS peptide-fed EAE mice; conditions: for IL-4 transcript level in CNS target tissue normalized to b-actin: spinal cord, day 23-26 post active immunization
From the text: as §1, §2

IFN-γ = assay: Quantitative PCR of IFN-γ transcripts in spleen and spinal cord of SIRS peptide-fed EAE mice
From the text: as §1, §2

acute EAE in B6 mice [3] = assay: Ingested (gavaged) SIRS peptide 1-21 in acute EAE induced by MOG peptide 35-55
acute EAE in B6 mice [4] = assay: Parenteral (injected) SIRS peptide 1-21 in acute EAE induced by MOG peptide 35-55; conditions: day −7 through day 14 post immunization, n=8/group; for inhibition of EAE compared to placebo: FIG. 2
EAE in B6 recipients = assay: Adoptive transfer of MOG-restimulated splenocytes from SIRS peptide-injected donors to B6 recipients; conditions: recipients of 10×10^6 MOG-activated splenocytes i.p. from donors injected with 10 mg day −7 through day +14, FIG. 3
Description: B6 mice effector donors were actively immunized with myelin oligodendrocyte glycoprotein peptide 35-55 described above (day 0) and injected (day −7 through day +14 post-immunization) with 0.1 ml of control saline (n=8) or 10 mg of soluble immune response suppressor peptide 1-21 (n=8). On day 14 post inoculation, splenocytes from both saline-injected (mock control) and soluble immune response suppressor peptide-injected (active treatment) immunized donor mice were re-stimulated in vitro with […] myelin oligodendrocyte glycoprotein peptide 35-55 at 20×10^6 splenocytes for >1 hour and then diluted to 2-4 million cells/ml and cultured for 48-72 hours in RPMi with 10% FCS and 1% Pen/Strep. Myelin oligodendrocyte glycoprotein-restimulated cells were washed, counted and passively transferred (10×10^6) i.p. into 8-10 week old female B6 recipients.
The control group reached a maximum disease score of 2.1.

[5] = system: diabetes mellitus in NOD mice; assay: Ingested SIRS peptide 1-21 in spontaneous diabetes of NOD mice; conditions: NOD female mice fed 100 μg daily from age ten weeks, FIG. 6 and FIG. 7
Description: NOD female mice (NOD MrkTacfBR) were obtained from Taconic Farms at eight weeks of age and feeding with mock (n=12) or 100 μg SIRS peptide 1-21 (n=6) in 0.1 ml DPBS daily was initiated at ten weeks. One hundred micrograms was used because this was an effective dose for inhibiting EAE (experimental autoimmune encephalomyelitis) in mice. The mice were maintained and fed under SPF conditions in microisolators, and handled under negative pressure sterile hoods. Surveillance mice were maintained with experimental mice and examined regularly for routine murine pathogens.
Mice were followed after initiation of feeding by weekly blood glucose determination (Life Scan One Touch II, Johnson & Johnson) beginning at week 18 thru 22. Animals were considered diabetic if two consecutive blood glucose determinations were above >11.1 mmol/l or >[…]. […]
Mock or SIRS peptide 1-21 was administered using a 2.5 cm syringe fitted with a 22-24 gauge ball point needle directly to the stomach and proximal small intestine (Thomas Scientific, Swedesboro, N.J.) daily to NOD mice beginning at age ten weeks. The peptide was directly delivered to the distal esophagus, stomach and proximal small intestine (as determined experimentally by injecting Evans blue during routine feeding and subsequent sacrifice). […]

SOCS-1 [6] = assay: Quantitative PCR of SOCS-1 transcripts in spleen and spinal cord of SIRS peptide-fed EAE mice; conditions: for SOCS-1 transcript level in CNS target tissue normalized to b-actin: spinal cord, day 23-26 post active immunization
From the text: as §1, §2

SOCS-1 [7] = assay: as above; conditions: for Splenic SOCS-1 transcript level normalized to b-actin: spleen, day 23-26 post active immunization
IL-10 = assay: Quantitative PCR of IL-10 transcripts in spleen and spinal cord of SIRS peptide-fed EAE mice
From the text: as §1, §2

[8] = splenic samples from peptide-fed mice
[9] = CNS target organ (spinal cord) of peptide-fed mice
[10] = splenic samples, data not shown

## MEVGWYRSPFSRVVHLYRNGK [Synthetic peptide 35-55 from myelin oligodendrocyte glycoprotein, used to induce EAE]
C57/BL6 mice
  mean clinical score (scale 0-6): 3.44

## MTEENQQSSQPKTTINNAGDS
SOCS-3 [1]; fed 0.1 mg
  Splenic SOCS-3 transcript level normalized to b-actin: 0.38 % b-actin molecules
SOCS-3 [1]; fed 1 mg
  Splenic SOCS-3 transcript level normalized to b-actin: 0.28 % b-actin molecules
SOCS-3 [1]; fed 10 mg
  Splenic SOCS-3 transcript level normalized to b-actin: 0.21 % b-actin molecules
SOCS-3 [1]; fed 100 mg
  Splenic SOCS-3 transcript level normalized to b-actin: 0.18 % b-actin molecules
SOCS-3 [1]; [8]
  decrease in SOCS-3 compared to control: 60%
SOCS-3 [2]; [9]
  decrease in SOCS-3: 45%
SOCS-3 [2]; fed 0.1 mg
  SOCS-3 transcript level in CNS target tissue normalized to b-actin: 0.45 % b-actin molecules
SOCS-3 [2]; fed 1 mg
  SOCS-3 transcript level in CNS target tissue normalized to b-actin: 0.54 % b-actin molecules
SOCS-3 [2]; fed 10 mg
  SOCS-3 transcript level in CNS target tissue normalized to b-actin: 0.28 % b-actin molecules
SOCS-3 [2]; fed 100 mg
  SOCS-3 transcript level in CNS target tissue normalized to b-actin: 0.22 % b-actin molecules
SOCS-2; cord samples
  difference in SOCS-2 compared to control: no significant differences
SOCS-2; [10]
  difference in SOCS-2 compared to control: no significant difference
IL-4; [9]
  decrease in IL-4 expression: up to 80%
IL-4; fed 0.1 mg
  IL-4 transcript level in CNS target tissue normalized to b-actin: 0.04 % b-actin molecules
IL-4; fed 1 mg
  IL-4 transcript level in CNS target tissue normalized to b-actin: 0.15 % b-actin molecules
IL-4; fed 10 mg
  IL-4 transcript level in CNS target tissue normalized to b-actin: 0.05 % b-actin molecules
IL-4; fed 100 mg
  IL-4 transcript level in CNS target tissue normalized to b-actin: 0.02 % b-actin molecules
IL-4; [10]
  difference in IL-4 compared to control: no significant difference
IFN-γ; cord samples
  difference in IFN-γ compared to control: no significant differences
IFN-γ; [10]
  difference in IFN-γ compared to control: no significant difference
Acute EAE in B6 mice [3]; 0.1 mg gavaged, FIG. 4
  delay in the onset of disease compared to placebo: prolonged delay in the onset of disease
Acute EAE in B6 mice [3]; 0.1 mg gavaged, day −7 through day 14, n=4/group, FIG. 4
  inhibition of EAE disease severity compared to placebo: significant inhibition of disease severity
Acute EAE in B6 mice [3]; 0.1 mg gavaged, day −7 through day 14, n=4/group, FIG. 4, listed as soluble immune response suppressor peptide
  inhibition of EAE disease severity compared to placebo: significant inhibition
Acute EAE in B6 mice [3]; 0.1 mg gavaged, repeat experiment, n=4/group, FIG. 5
  inhibition of EAE compared to placebo: no significant inhibition
Acute EAE in B6 mice [3]; 1 mg gavaged, day −7 through day 14, n=4/group, FIG. 4
  inhibition of EAE compared to placebo: significant inhibition
Acute EAE in B6 mice [3]; 1 mg gavaged, repeat experiment, FIG. 5
  delay in the onset of disease compared to placebo: prolonged delay in the onset of disease
Acute EAE in B6 mice [3]; 1 mg gavaged, repeat experiment, FIG. 5, p<0.038 Mann-Whitney
  inhibition of disease severity compared to placebo: significant inhibition of disease severity
Acute EAE in B6 mice [3]; 10 mg gavaged, FIG. 4
  delay in the onset of disease compared to placebo: prolonged delay in the onset of disease
Acute EAE in B6 mice [3]; 10 mg gavaged, day −7 through day 14, n=4/group, FIG. 4
  inhibition of disease severity compared to placebo: significant inhibition of disease severity
Acute EAE in B6 mice [3]; 100 mg gavaged, FIG. 4
  delay in the onset of disease compared to placebo: prolonged delay in the onset of disease
Acute EAE in B6 mice [3]; 100 mg gavaged, day −7 through day 14, n=4/group, FIG. 4
  inhibition of disease severity compared to placebo: significant inhibition of disease severity
Acute EAE in B6 mice [3]; 100 mg gavaged, repeat experiment, FIG. 5
  delay in the onset of disease compared to placebo: prolonged delay in the onset of disease
Acute EAE in B6 mice [3]; 100 mg gavaged, repeat experiment, FIG. 5, p<0.001
  inhibition of disease severity compared to placebo: significant inhibition of disease severity
Acute EAE in B6 mice [4]; 0.1 mg injected
  inhibition of EAE compared to placebo: no significant inhibition
Acute EAE in B6 mice [4]; 1 mg injected
  inhibition of EAE compared to placebo: no significant inhibition
Acute EAE in B6 mice [4]; 10 mg injected (s.c.), FIG. 2, ρ<0.001
  inhibition of disease severity compared to placebo: significant inhibition of disease severity
EAE in B6 recipients
  clinical disease in recipients after passive transfer: did not have any prolonged clinical disease
[5]
  frequency of mice becoming diabetic compared to mock treated mice: decreased frequency of mice becoming diabetic
  onset of T1DM compared to mock treated mice: significantly delayed onset of T1DM
SOCS-1 [6]; [9]
  increase in SOCS-1 expression: 75-175 % of control
SOCS-1 [6]; fed 0.1 mg
  SOCS-1 transcript level in CNS target tissue normalized to b-actin: 0.14 % b-actin molecules
SOCS-1 [6]; fed 1 mg
  SOCS-1 transcript level in CNS target tissue normalized to b-actin: 0.19 % b-actin molecules
SOCS-1 [6]; fed 10 mg
  SOCS-1 transcript level in CNS target tissue normalized to b-actin: 0.22 % b-actin molecules
SOCS-1 [6]; fed 100 mg
  SOCS-1 transcript level in CNS target tissue normalized to b-actin: 0.14 % b-actin molecules
SOCS-1 [7]; fed 0.1 mg
  Splenic SOCS-1 transcript level normalized to b-actin: 0.28 % b-actin molecules
SOCS-1 [7]; fed 1 mg
  Splenic SOCS-1 transcript level normalized to b-actin: 0.30 % b-actin molecules
SOCS-1 [7]; fed 10 mg
  Splenic SOCS-1 transcript level normalized to b-actin: 0.23 % b-actin molecules
SOCS-1 [7]; fed 100 mg
  Splenic SOCS-1 transcript level normalized to b-actin: 0.23 % b-actin molecules
SOCS-1 [7]; [8]
  decrease in SOCS-1 compared to control: up to 30%
IL-10; cord samples
  difference in IL-10 compared to control: no significant differences
IL-10; [10]
  difference in IL-10 compared to control: no significant difference
